Test results as given in paper PMC11783601, “Analogue-Sensitive Inhibition of Histone Demethylases Uncovers Member-Specific Function in Ribosomal Protein Synthesis” (Journal of the American Chemical Society, 2025).
Entries after “also recorded” stand apart in the source; their conditions may differ.

How the values were obtained:
[1] = system: HEK293T cells; experiment: Cell permeability and hydrolysis to 6, LC-HRMS of cell extracts; format: in vitro ADME, human; details: 200 µM, 24 hours, LC-HRMS total ion counts
From the text: We next examined the orthogonal pairs for their ability to modulate lysine demethylation on the chromosomal histone in cultured human cells (Figure 4A). To this end, we generated the F185A mutation in full-length KDM4A carrying all of the functional domains. Furthermore, to enhance cell permeability, we synthesized two chemoselective ester prodrugs 6A and 6B carrying either an n-octyl or a trifluoromethyl benzyl ester as the lipophilic moiety, respectively (Figures 4A, S5, and S6, Scheme S3).[46],[47] We confirmed the cell permeability of 6A and 6B and their subsequent hydrolysis to 6 by analyzing extracts of compound-treated HEK293T cells using LC-HRMS. […]
12. Examining cell permeability and toxicity of 6A and 6B
In a T-25 cell culture flask, HEK293T cells were treated with either 200 µM L-Leu octyl-ester NOG 6A, L-Leu TFMB-ester NOG 6B, or corresponding volume of DMSO. Following 24 hours of incubation at 37 °C, media was removed and 3mL of 80:20 methanol: water was added while the flasks with cells were on dry ice. The flasks were then incubated in -80 °C for 10 minutes to allow cell lysis. […] Relative de-esterification was determined by subtracting abundance of each treatment sample by the DMSO control and indicated molecular weights followed by dividing the abundance of L-Leu NOG molecular weight by the total abundance of esterified and de-esterified L-Leu 6 for each sample. […]

[2] = target: T1, full-length KDM4A-F185A (asKDM4A) (Homo sapiens, UniProt O75164, F185A); experiment: H3K9me3 Western blot of nuclear extracts of transfected HEK293T cells; format: cell-based; details: varying concentrations (25-200 µM)
T1 construct: we generated the F185A mutation in full-length KDM4A carrying all of the functional domains; host or cells: HEK293T
Method: HEK293T cells were transiently transfected with asKDM4A and treated with varying concentrations of 6A or 6B. […] To further confirm the activity of the enzyme–inhibitor pair, we performed tandem mass spectrometry of tryptic histones isolated from HEK293T cells expressing asKDM4A in the presence or absence of 100 μM 6A.
KDM4A mammalian expression plasmid in CMV vector was purchased from Addgene (plasmid #24180). KDM4B mammalian expression plasmid in CMV vector was purchased from Addgene (plasmid #24181). KDM4C mammalian expression plasmid in CMV vector was purchased from Addgene (plasmid #24214). KDM4D mammalian expression plasmid in pReciever vector was purchased from Genecopoia (EX-Z0917-M06.) KDME mammalian expression plasmid in pRP-EXP was designed from Vector Builder. The KDM4A-F185A, KDM4B-F186A, KDM4C -F187A, KDM4D-F189A, and KDM4E F186A mutants were generated using Quikchange Lightening Mutagenesis Kit (Agilent) according to manufacturer’s protocol and confirmed by Sanger […]
For the time dependent imaging, cells containing the transfected KDM4A mutant were identified by their HA signal. […] The mean signal was then measured for H3K9me3 or BrdU only within the cells expressing the KDM4A mutant. To compare changes in H3K9me3 or BrdU between trials, the quantification values were normalized to the mean signal at t=0. […]

T1 sequence (O75164 whole entry F185A, the tested form may be a part): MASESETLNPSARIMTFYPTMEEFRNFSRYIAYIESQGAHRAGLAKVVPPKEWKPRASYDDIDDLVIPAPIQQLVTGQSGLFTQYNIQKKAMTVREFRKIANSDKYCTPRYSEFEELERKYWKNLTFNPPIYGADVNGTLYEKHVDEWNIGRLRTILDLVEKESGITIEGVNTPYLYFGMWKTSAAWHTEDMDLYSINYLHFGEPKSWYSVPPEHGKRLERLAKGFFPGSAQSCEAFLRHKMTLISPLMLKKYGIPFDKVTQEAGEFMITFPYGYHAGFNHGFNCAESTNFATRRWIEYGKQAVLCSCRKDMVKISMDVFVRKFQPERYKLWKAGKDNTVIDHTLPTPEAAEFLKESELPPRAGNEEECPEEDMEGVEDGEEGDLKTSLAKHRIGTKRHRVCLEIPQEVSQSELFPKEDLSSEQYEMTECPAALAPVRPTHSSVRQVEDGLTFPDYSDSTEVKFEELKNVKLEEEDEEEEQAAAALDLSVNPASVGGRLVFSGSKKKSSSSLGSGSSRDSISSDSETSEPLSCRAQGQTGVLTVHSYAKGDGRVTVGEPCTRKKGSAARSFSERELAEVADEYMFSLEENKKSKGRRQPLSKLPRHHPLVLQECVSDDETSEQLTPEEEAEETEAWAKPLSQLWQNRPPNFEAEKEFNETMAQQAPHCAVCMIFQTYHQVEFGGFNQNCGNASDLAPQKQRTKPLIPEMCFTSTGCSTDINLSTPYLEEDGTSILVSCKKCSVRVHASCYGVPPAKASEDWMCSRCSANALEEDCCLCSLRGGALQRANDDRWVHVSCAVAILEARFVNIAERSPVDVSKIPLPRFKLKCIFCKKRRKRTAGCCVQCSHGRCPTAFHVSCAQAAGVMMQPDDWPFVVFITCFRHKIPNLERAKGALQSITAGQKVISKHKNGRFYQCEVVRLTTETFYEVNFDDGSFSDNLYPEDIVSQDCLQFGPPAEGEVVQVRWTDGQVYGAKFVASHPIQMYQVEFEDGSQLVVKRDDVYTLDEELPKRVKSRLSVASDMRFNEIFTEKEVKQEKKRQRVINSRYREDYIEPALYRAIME

Row | Structure (SMILES) | membrane permeability and hydrolysis to 6 [1] | inhibition of asKDM4A (F185A) H3K9me3 demethylation [2]
1 | CCCCCCCCOC(=O)C(=O)NC(CC(C)C)C(=O)O [6A, L-Leu octyl-ester NOG] | comparable membrane permeability | Dose-dependent inhibition; also recorded: inhibited by both prodrugs in a dose-dependent manner
2 | CC(C)CC(NC(=O)C(=O)OCc1cccc(C(F)(F)F)c1)C(=O)O [6B, L-Leu TFMB-ester NOG] | comparable membrane permeability | Dose-dependent inhibition; also recorded: inhibited by both prodrugs in a dose-dependent manner
